Counter-ions that a name gives are not always drawn.

This passage reports melting point results from US8586588B2, “Aryl pyridazinone derivatives and their use as H3 receptor ligands” (Cephalon, Inc., priority 2006, dated 2013).

The term melting point denotes the temperature, or range, at which the solid turns liquid. `Cn1nc(-c2ccc(OCC3CCNCC3)cc2)c2ccccc2c1=O` (as salt: HCl) [Example 63, 2-Methyl-4-[4-(piperidin-4-ylmethoxy)-phenyl]-2H-phthalazin-1-one] returned a melting point of 207 to 209 °C.
The compound `Cn1nc(-c2ccc(OCC3CCNCC3)cc2)ccc1=O` (as salt: HCl) [Example 66, 2-Methyl-6-[4-(piperidin-4-ylmethoxy)-phenyl]-2H-pyridazin-3-one] gave a melting point of 249 to 251 °C.
Turning to `Cn1ncc2ccc(OCCCN3CCCCC3)cc2c1=O` (as salt: HCl) [Example 80, 2-Methyl-7-(3-piperidin-1-yl-propoxy)-2H-phthalazin-1-one], the melting point is 251 to 252 °C.
In the case of `Cn1nc(-c2ccc(OCCCN3CCCCC3)cc2)c2c(c1=O)CCCC2` (as salt: HCl) [Example 61] it was 196 to 198 °C; in that of `CCCn1nc(-c2ccc(OCCCN3CCC[C@H]3C)cc2)c2sccc2c1=O` (as salt: HCl) [Example 32, 7-{4-[3-((R)-2-Methyl-pyrrolidin-1-yl)-propoxy]phenyl}-5-propyl-5H-thieno[2,3-d]pyridazin-4-one], 151 to 153 °C; in that of `O=C1CCC(c2ccc(OC3CCN(C4CCC4)CC3)cc2F)=NN1` (as salt: HCl) [Example 219, 6-[4-(1-Cyclobutyl-piperidin-4-yloxy)-2-fluoro-phenyl]-4,5-dihydro-2H-pyridazin-3-one], above 300 °C.
For the compound `C[C@@H]1CCCN1CCCOc1ccc(-c2ccc(=O)n(-c3ccccc3)n2)cc1` (as salt: HCl) [Example 20, 6-{4-[3-((R)-2-Methyl-pyrrolidin-1-yl)-propoxy]-phenyl}-2-phenyl-2H-pyridazin-3-one], the melting point lay in the range of 82 to 86 °C.
`CC(C)n1nc(-c2ccc(OCCCN3CCC[C@H]3C)cc2)ccc1=O` (as salt: tartrate) [Example 5, 2-Isopropyl-6-{4-[3-((R)-2-methyl-pyrrolidin-1-yl)-propoxy]-phenyl}-2H-pyridazin-3-one] gave a melting point of 60 to 64 °C.
Regarding `CCCn1nc(-c2ccc(OCCCN3CCC[C@H]3CN3CCCC3)cc2)c2sccc2c1=O` (as salt: HCl) [Example 36, 5-Propyl-7-{4-[3-((S)-2-pyrrolidin-1-ylmethyl-pyrrolidin-1-yl)-propoxy]-phenyl}-5H-thieno[2,3-d]pyridazin-4-one], the melting point was 123 °C (dec.).
`Cn1nc(-c2cccc(OCCCN3CCCCC3)c2)c2c(c1=O)CCC2` (as salt: HCl) [Example 126, 2-Methyl-4-[3-(3-piperidin-1-yl-propoxy)-phenyl]-2,5,6,7-tetrahydro-cyclopenta[d]pyridazin-1-one] showed a melting point of 189 to 190 °C.
`O=C1NN=C(c2ccc(OC3CCN(C4CCC4)CC3)cc2)C2CCC12` (centres unmarked) (as salt: HCl) [Example 172, 5-[4-(1-Cyclobutyl-piperidin-4-yloxy)-phenyl]-3,4-diaza-bicyclo[4.2.0]oct-4-en-2-one]: the melting point was 285 to 288 °C.
In turn, `C[C@@H]1CCCN1CCCOc1ccc2c(c1)CCc1cc(=O)[nH]nc1-2` (as salt: HCl) [Example 209, 8-[3-((R)-2-Methyl-pyrrolidin-1-yl)-propoxy]-5,6-dihydro-2H-benzo[h]cinnolin-3-one] returned a melting point of 289 to 292 °C.
Then `Cn1nc(-c2ccc(OCCCN3CCCC3)cc2)c2ccccc2c1=O` (as salt: HCl) [Example 52, 2-Methyl-4-[4-(3-pyrrolidin-1-yl-propoxy)-phenyl]-2H-phthalazin-1-one], with 201 to 203 °C; and `Cn1nc(-c2ccc(OCCCN3CCC[C@H]3CO)cc2)ccc1=O` (as salt: HCl) [Example 14, 6-{4-[3-((S)-2-Hydroxymethyl-pyrrolidin-1-yl)-propoxy]-phenyl}-2-methyl-2H-pyridazin-3-one], with 169 °C; and `C[C@H](COc1ccc(-c2ccc(=O)n(C)n2)cc1)CN1CCC[C@H]1C` (as salt: HCl) [Example 13, 2-Methyl-6-{4-[(S)-2-methyl-3-((R)-2-methyl-pyrrolidin-1-yl)-propoxy]-phenyl}-2H-pyridazin-3-one], with 188 to 190 °C.
For `Cc1nn(-c2ccsc2)c(=O)cc1-c1ccc(OC2CCN(C3CCC3)CC2)cc1` (as salt: HCl) [Example 107, 5-[4-(1-Cyclobutyl-piperidin-4-yloxy)-phenyl]-6-methyl-2-thiophen-3-yl-2H-pyridazin-3-one], the melting point fell in the range of 277 to 279 °C.
`CCCn1nc(-c2ccc(OCCCN3CCC(N(C)C)CC3)cc2)c2sccc2c1=O` (as salt: HCl) [Example 35, 7-{4-[3-(4-Dimethylamino-piperidin-1-yl)-propoxy]-phenyl}-5-propyl-5H-thieno[2,3-d]pyridazin-4-one] gave a melting point of 207 to 209 °C.
As for `CC1CCC(C)N1CCCOc1ccc(-c2nn(C(C)C)c(=O)c3ccsc23)cc1` (centres unmarked) (as salt: HCl) [Example 23, 7-{4-[3-(2,5-Dimethyl-pyrrolidin-1-yl)-propoxy]-phenyl}-5-isopropyl-5H-thieno[2,3-d]pyridazin-4-one], the melting point was 158 to 159 °C.
As to `Cc1cc(-c2ccc(OCCCN3CCCCC3)cc2)nn(C(C)C)c1=O` (as salt: HCl) [Example 42, 2-Isopropyl-4-methyl-6-[4-(3-piperidin-1-yl-propoxy)-phenyl]-2H-pyridazin-3-one], the melting point lay in the range of 197 to 198 °C.
Take `C[C@@H]1CCCN1CCCOc1ccc(-c2nn(C)c(=O)cc2-c2ccccc2)cc1` (as salt: HCl) [Example 47, 2-Methyl-6-{4-[3-((R)-2-methyl-pyrrolidin-1-yl)-propoxy]-phenyl}-5-phenyl-2H-pyridazin-3-one]: the melting point fell in the range of 207 to 209 °C.
Then `O=c1ccc(-c2ccc(OCCCN3CCCCC3)c(F)c2)n[nH]1` (as salt: HCl) [Example 120, 6-[3-Fluoro-4-(3-piperidin-1-yl-propoxy)-phenyl]-2H-pyridazin-3-one], with 240 to 242 °C; and `O=c1ccc(-c2ccc(OCCCN3CCCCC3)c(F)c2)nn1-c1ccccc1` (as salt: HCl) [Example 10, 6-[3-Fluoro-4-(3-piperidin-1-yl-propoxy)-phenyl]-2-phenyl-2H-pyridazin-3-one], with 230 to 232 °C.
`O=C1CCC(c2ccc(OC3CCN(C4CCC4)CC3)cc2)=NN1c1ccccn1` (as salt: HCl) [Example 158, 6-[4-(1-Cyclobutyl-piperidin-4-yloxy)phenyl]-2-pyridin-2-yl-4,5-dihydro-2H-pyridazin-3-one] gave a melting point of 263 to 265 °C.
In turn, `Cn1ncc(-c2ccc(OCCCN3CCCCCC3)cc2)cc1=O` (as salt: hydrochloride) [Example 93, 5-[4-(3-Azepan-1-yl-propoxy)-phenyl]-2-methyl-2H-pyridazin-3-one] displayed a melting point of 247 to 248 °C.
For the compound `CCN1N=C(c2ccc(OC3CCN(C4CCC4)CC3)cc2)C2CC2C1=O` (centres unmarked) (as salt: HCl) [Example 250, 5-[4-(1-Cyclobutyl-piperidin-4-yloxy)-phenyl]-3-ethyl-3,4-diaza-bicyclo[4.1.0]hept-4-en-2-one], the melting point fell in the range of 246 to 248 °C.
Take `C[C@@H]1CCCN1CCCOc1ccc(C2=NNC(=O)CC2c2ccccn2)cc1` (stereo partly drawn) (as salt: hydrochloride) [Example 111, 6-{4-[3-((R)-2-Methyl-pyrrolidin-1-yl)-propoxy]-phenyl}-5-pyridin-2-yl-4,5-dihydro-2H-pyridazin-3-one]: the melting point is 133 °C (dec.).
In turn, `C[C@@H]1CCCN1CCCOc1ccc(-c2ccc(=O)n(C)n2)cc1` (as salt: HCl) [Example 1, 2-Methyl-6-{4-[3-((R)-2-methyl-pyrrolidin-1-yl)-propoxy]-phenyl}-2H-pyridazin-3-one] gave a melting point of 183 to 185 °C.
Turning to `Cn1nc(-c2ccc(OCCCN3CCCCC3)cc2)cc(Cc2ccccc2)c1=O` (as salt: HCl) [Example 46, 4-Benzyl-2-methyl-6-[4-(3-piperidin-1-yl-propoxy)-phenyl]-2H-pyridazin-3-one], the melting point is 186 to 187 °C.
For the compound `C[C@@H]1CCCN1CCCOc1ccc(-c2nn(Cc3ccc(Cl)cc3)c(=O)c3ccccc23)cc1` (as salt: HCl) [Example 54, 2-(4-Chloro-benzyl)-4-{4-[3-((R)-2-methyl-pyrrolidin-1-yl)-propoxy]-phenyl}-2H-phthalazin-1-one], the melting point was in the range of 217 to 218 °C.
With `CCN(CC)CCCOc1ccc(-c2nn(C(C)C)c(=O)c3ccsc23)cc1` (as salt: HCl) [Example 28, 7-[4-(3-Diethylamino-propoxy)-phenyl]-5-isopropyl-5H-thieno[2,3-d]pyridazin-4-one], the melting point lay in the range of 188 to 190 °C.
In turn, `O=C1NN=C(c2ccc(OC3CCN(C4CCCC4)CC3)cc2)C2CC12` (centres unmarked) (as salt: HCl) [Example 261, 5-[4-(1-Cyclopentyl-piperidin-4-yloxy)-phenyl]-3,4-diaza-bicyclo[4.1.0]hept-4-en-2-one] had a melting point of 288 to 290 °C.
Then `Cc1cc(-c2ccc(OCCCN3CCCCC3)cc2)n[nH]c1=O` (as salt: HCl) [Example 123, 4-Methyl-6-[4-(3-piperidin-1-yl-propoxy)-phenyl]-2H-pyridazin-3-one], with 227 to 229 °C; and `COCn1ncc(-c2ccc(OCCCN3CCCCC3)cc2C)cc1=O` (as salt: HCl) [Example 232, 2-Methoxymethyl-5-[2-methyl-4-(3-piperidin-1-yl-propoxy)-phenyl]-2H-pyridazin-3-one], with 185 to 197 °C (dec.); and `Cn1nc(-c2ccc(OCCCN3CCCCC3)cc2)ccc1=O` (as salt: HCl) [Example 2, 2-Methyl-6-[4-(3-piperidin-1-yl-propoxy)-phenyl]-2H-pyridazin-3-one], with 200 to 201 °C.
In the case of `Cc1n[nH]c(=O)cc1-c1ccc(OCCCN2CCC[C@H]2C)cc1` (as salt: hydrochloride) [Example 88, 6-Methyl-5-{4-[3-((R)-2-methyl-pyrrolidin-1-yl)-propoxy]-phenyl}-2H-pyridazin-3-one], the melting point is 115 °C (dec.).
